From article PMC7355663, “Microscale Thermophoresis as a Screening Tool to Predict Melanin Binding of Drugs” (Pharmaceutics, 2020)
Read-outs that look alike come from different tables or passages of the source.

Columns and labels:
melanin [1] = experiment: in vitro; details: for fraction unbound at 20 h, 1 µM: pig, pH 7.4
Protocol: (§1) The traditional melanin binding assay was conducted with melanin from the porcine RPE-choroid. We used previously published methods for melanin isolation and drug binding. Fresh melanin suspension and test compound solutions were prepared before each experiment. The melanin suspension (in PBS, pH 7.4) was sonicated in a bath sonicator for 30 min (Elmasonic S 40 H, Elma Schmidbauer GmbH, Singen, Germany) before the experiment. The incubation with test compounds took place at 37 °C on a shaker (220 rpm), and the melanin concentration in the assay was 1 mg/mL (0.15 mg/well). In the control samples, PBS buffer (pH 7.4) was used instead of the melanin suspension. Three individual replicates were made for each experiment. After 20 h incubation, the samples were centrifuged at 20,000× g for 20 min, and supernatant containing the unbound ligand was collected for analysis.
(§2) Samples having an estimated concentration of 0.5 µM or higher were analyzed with ultra-high pressure liquid chromatography (UPLC) (Acquity UPLC, Waters, Milford, MA, USA) with UV detection (Photodiode Array Detector, Waters, MA, USA). The separation was carried out on a Luna Omega Polar C18 (1.6 μm, 2.1 × 50 mm^2) column (Phenomenex) at 30 °C. Injection volume was 4 µL. Gradient mode was used for all the compounds with an acetonitrile/15 mM phosphate buffer (pH 2) mobile phase. Gradient duration was 3−5 min depending on the sample (levofloxacin, terazosin, and papaverine).
(§3) All internal standards, namely levofloxacin D8, terazosin D8, and papaverine D3, were purchased from Toronto Research Chemicals (Toronto, ON, Canada). […] Injection volumes were 0.2 μL for terazosin, 0.3 µL for levofloxacin, and 0.15 µl for papaverine with a flow through needle injection system. The mobile phase consisted of 0.1% formic acid (Merck, Darmstadt, Germany) in ultrapure water (A) and 100% LC–MS grade acetonitrile (Honeywell, Seelze, Germany) (B). […] The gradient for levofloxacin was the same as for papaverine, but the total run time was 6 min. The flow rate was 0.3 mL/min for all the compounds.
(§4) Mass spectrometric measurements were carried out using a Waters Xevo TQ-S triple quadruple mass spectrometer coupled with an electrospray ionization (ESI) on a positive mode for all three compounds. Optimized MS-parameters were as follows: capillary 1.5 kV (terazosin and papaverine), 3.5 kV (levofloxacin), cone voltage 80 V (terazosin) and 8 V (terazosin D8), 22 V (papaverine and papaverine D3), 28 V (levofloxacin and levofloxacin D8), source temperature 150 °C, and desolvation temperature 500 °C (terazosin) or 450 °C (papaverine and levofloxacin). Nitrogen (AGA, Helsinki, Finland) was used as the desolvation gas (1000 L·h^−1 terazosin, 800 L·h^−1 papaverine and levofloxacin) and the cone gas (150 L·h^−1), argon (AGA, Helsinki, Finland) as the collision gas. Multiple reaction monitoring (MRM) mode was employed for quantification. […] The resulting data were analyzed with Waters MassLynx V4.1 software. To consider the effect of melanin on the analyses, separate samples containing only melanin in PBS (with no test compound) were also studied.
(§5) The binding parameters were determined with Sips isotherm (Equation (2)) as described by Manzanares et al.. B = (Bmax × [L]^n)/(Kd^n + [L]^n)(2) where B is the amount of bound drug (nmol·mg^−^1); Bmax is the maximum binding capacity (nmol·mg^−^1); [L] is the free drug concentration (µM); n is the heterogeneity index (assuming heterogeneity of the surface of the melanin particles); and Kd represents the dissociation constant (µM).

[2] = design: method as in PMID 26741026, PMID 29859954; details: from previous studies, ref [11],[16], cited from earlier work; for Kd: read-out: Kd ± SE, traditional method (Sips isotherm); for n ± SE, traditional method (Sips isotherm): heterogeneity index; for Bmax ± SE, traditional method (Sips isotherm): maximum binding capacity
[3] = Traditional melanin binding assay (equilibrium binding, Sips isotherm); details: for Target Capacity ± SE, traditional method (Sips isotherm): Bmax multiplied with 0.5 mg/mL melanin concentration of the MST assay; for n ± SE, traditional method (Sips isotherm): heterogeneity index; for n ± SE, traditional method (Sips isotherm) / Bmax ± SE, traditional method (Sips isotherm) / Kd: 1 mg/mL melanin, PBS pH 7.4, 37 °C; for Bmax ± SE, traditional method (Sips isotherm): maximum binding capacity; for Kd: read-out: Kd ± SE, traditional method (Sips isotherm)
Protocol: as §1, §2, §3, §4, §5

melanin [4] = experiment: Prediction of unbound ligand fraction in vivo (human RPE-choroid); details: human
Protocol: (§6) Unbound ligand fractions in vivo were calculated considering melanin binding as the only driver of nonspecific tissue binding.
(§7) Linear regression was used to describe the relationship between the Kd values obtained with the MST and the predicted unbound ligand fractions in human RPE-choroid obtained with calculations described above.
(§8) The Kd values obtained with MST consider only one class of binding site, whereas the Sips isotherm (the traditional binding assay) depicts different binding energies and binding sites. […] This approach is relevant to evaluate the melanin binding.

[5] = as above; details: class by predicted fraction unbound in vivo, human RPE-choroid
Protocol: as §6, §7, §8

[6] = Label-free microscale thermophoresis (MST) melanin binding assay; details: for melanin binder category in Figure 1a: comparison of MST with traditional assay
Protocol: Synthetic melanin was purchased from Sigma Aldrich (#M8631-100 mg). Melanin nanoparticles were prepared as described earlier by Fan et al., and low-binding pipette tips (Maxymum RecoveryTM pipet tips, Corning Incorporated, Salt Lake City, UT, USA) and tubes (No stick microtubes, Alpha Laboratories, Hampshire, UK) were used with both melanin and melanin nanoparticles. Briefly, melanin was dissolved into 1 N NaOH with a concentration of 2 mg/mL and stirred by vortexing. The solution was neutralized by adding an equal volume of 1 N HCl. […] After the final centrifugation, the resulting nanoparticles were suspended into a small volume of sterile water and freeze-dried for 48–72 h (ModulyoD-230, Thermo Savant, Holbrook, NY, USA), and stored at −20 °C until the binding assays.
Melanin binding of each of the 13 model compounds was determined (for the concentrations in the assay, see Table 1). The dilution series of drugs were prepared onto a PCR plate (4titude PCR Plate, Skirted, #4ti-0740, Brooks Life Sciences, Chelmsford, MA, USA) in phosphate buffered saline (PBS, pH 7.4). […] The compound dilutions (10 µL) were transferred into 0.2 mL PCR tube strips (#TBS0201, Bio-Rad Laboratories, Inc., Hercules, CA, USA), and an equal volume of 1 mg/mL melanin nanoparticle dilution was added, resulting in a final melanin concentration of 0.5 mg/mL. At least three biological replicates (individually incubated dilution series) were prepared for each compound (n = 3–5). A reference sample containing only melanin nanoparticles and PBS (pH 7.4) was included in each assay to determine the unbound state in the thermophoresis experiment. Melanin nanoparticles were incubated with the compounds at room temperature for at least 2 h.
After >2 h incubation, the melanin–ligand complexes were mixed gently with a pipette to ensure melanin solution homogeneity and then transferred into capillaries (Monolith NT.115 Premium capillaries, #MOK025, NanoTemper Technologies GmbH, München, Germany). The samples were analyzed with a Monolith NT.115 pico device using MO.Control Software (both from NanoTemper Technologies GmbH, München, Germany) using nano-blue excitation, LED light adjusted to 60% excitation power, and infrared laser (MST power) set to high. […] The equation is based on the Langmuir binding isotherm. […] Equation (1) is a follows:(1) f(c)=Unbound+(Bound−Unbound)×c+c(target)+Kd−(c+c(target)+Kd)^2−4c×c(target)/2c(target) where f(c) is the fraction bound at a given ligand concentration c. Unbound is either the normalized fluorescence signal (Fnorm; MST mode) or raw fluorescence counts (initial fluorescence mode) of the target alone. Bound is either the normalized fluorescence signal or raw fluorescence counts (initial fluorescence mode) of the melanin–ligand complex. Kd is the dissociation constant or binding affinity, and c (target) is the final concentration of the target in the assay.
The normalized fluorescence is the ratio of relative fluorescence of the selected region after heating (hot region) and relative initial fluorescence before the heating (cold region, i.e., relative fluorescence values before the infrared laser was switched on). The MST traces displaying the changes in the relative fluorescence over time (heating) with the selected hot and cold regions are presented in the Supplementary Materials. In the case of ligand-induced changes in the initial raw fluorescence counts, the raw fluorescence counts prior to the heating were used (initial fluorescence mode). If the ligand-induced fluorescence changes were not observed, the normalized fluorescence signals (MST mode) were used to determine the Kd (for additional information, see the Supplementary Materials). […] Affinity Analysis Software.
Kd determination strategies. The Kd values were tested in both initial fluorescence and the above
described MST modes within the MO Affinity Analysis Software (Fig. S1, Table S1) and the Kd values

[7] = average of the two high binders; 34 compounds in cassette; melanin 3.6 mg/mL; data of Pelkonen et al. [6]
Protocol: as §6

[8] = monkeys and humans; ref [10]; cited from earlier work
[9] = human RPE-choroid (predicted), 34.8 mg/mL melanin
[10] = 0.5 mg/mL (12.5 µM) melanin nanoparticles, PBS pH 7.4, room temperature, 68% confidence, initial fluorescence mode for compounds marked *, otherwise MST mode, read-out: Kd ± Kd Confidence (MST)
[11] = Table S2, normalized fluorescence, 60% excitation power, read-out: Kd, MST mode (Fnorm)
[12] = Table S2, raw fluorescence counts before heating, 60% excitation power, read-out: Kd, initial fluorescence mode (converted)

| SMILES | n ± SE, traditional method (Sips isotherm) [2] | Bmax ± SE, traditional method (Sips isotherm) [2] [nmol/mg] | fraction unbound at 20 h, 1 µM (melanin [1]) | Target Capacity ± SE, traditional method (Sips isotherm) [3] [µM] | fraction unbound at 1 µM (melanin [4]; [9]) | Melanin binding class based on traditional assay [5] | Kd [6, 10] [µM] | Kd [6, 11] [µM] | Kd [6, 12] [µM] | further results |
| --- | --- | --- | --- | --- | --- | --- | --- | --- | --- | --- |
| C=C[C@H]1C[N@@]2CC[C@H]1C[C@@H]2[C@@H](O)c1ccnc2ccc(OC)cc12 [Quinidine] |  |  |  |  |  |  |  |  |  | fraction unbound (melanin [1]): 0.16 |
| CCN(CC)CCCC(C)Nc1ccnc2cc(Cl)ccc12 (centres unmarked) [Chloroquine] | 0.605 ± 0.012 | 380 ± 40 | 0.0041 | 190 ± 20 | 1.2e-05 | extreme | 0.8 | 0.8 |  | Kd [2]: 76 ± 23 µM |
| Clc1ccc2nsnc2c1NC1=NCCN1 [tizanidine] |  |  |  |  |  |  |  |  |  | unbound fraction in cassette assay compared to single compound incubation [7]: 2.1 fold |
| CC(C)(C)NC[C@H](O)COc1nsnc1N1CCOCC1 [Timolol] | 0.95 ± 0.03 | 39 ± 6 | 0.71 | 19.5 ± 3 | 0.057 | intermediate | 260 ± 128 | 260 |  | Kd [2]: 120 ± 30 µM |
| COc1ccc(Cc2nccc3cc(OC)c(OC)cc23)cc1OC [Papaverine] |  |  | 0.15 | 33 ± 4 |  | high | 28 ± 23 | 93 | 28 | n ± SE, traditional method (Sips isotherm) ([3]; 20 h): 0.715 ± 0.015; Bmax ± SE, traditional method (Sips isotherm) ([3]; 20 h): 66 ± 8 nmol/mg; Kd ([3]; 20 h): 66 ± 18 µM; fraction unbound at 1 µM (melanin [4]): 0.0013 |
| O=C(O)Cc1ccccc1Nc1c(Cl)cccc1Cl [Diclofenac] |  |  |  |  |  |  |  |  |  | Kd ± SE, traditional method (Sips isotherm) [2]: no binding ^1; Kd ± Kd Confidence (MST) ([6]; 0.5 mg/mL (12.5 µM) melanin nanoparticles, PBS pH 7.4, room temperature, 68% confidence, initial fluorescence mode for compounds marked *, otherwise MST mode): Kd could not be determined; Melanin binding class based on Kd from MST ([6]; class by Kd (MST)): low; melanin binder category in Figure 1a [6]: Weak melanin binders |
| CN(Cc1cnc2nc(N)nc(N)c2n1)c1ccc(C(=O)N[C@@H](CCC(=O)O)C(=O)O)cc1 [Methotrexate] |  |  |  |  |  | low | 3500 | > 10000 | 3500 | Kd ± SE, traditional method (Sips isotherm) [2]: no binding ^1; fraction unbound (melanin [1]): 0.98; fraction unbound (melanin [4]; [9]): 0.54; melanin binder category in Figure 1a [6]: Weak melanin binders |
| CC(C)(C)NCC(O)COc1cccc2c1CC(O)C(O)C2 (centres unmarked) [Nadolol] | 0.94 ± 0.05 | 68 ± 24 |  | 34 ± 12 | 0.08 | intermediate | 200 ± 33 | 260 | 200 | Kd [2]: 340 ± 200 µM; Fraction Unbound in Vitro (%) (1 mg/mL Melanin) ([3]; pig, 20 h, 1 µM, pH 7.4): 78% |
| CC(C)NCC(O)COc1cccc2ccccc12 (centres unmarked) [Propranolol] | 0.89 ± 0.05 | 176 ± 60 | 0.32 | 88 ± 30 | 0.009 | high |  |  |  |  |
| COc1cc2nc(N3CCN(C(=O)C4CCCO4)CC3)nc(N)c2cc1OC (centres unmarked) [Terazosin] |  |  | 0.029 | 56 ± 6.5 | 0.00012 | extreme | 29 ± 28 | 96 | 29 | n ± SE, traditional method (Sips isotherm) ([3]; 20 h): 0.64 ± 0.018; Bmax ± SE, traditional method (Sips isotherm) ([3]; 20 h): 112 ± 13 nmol/mg; Kd ([3]; 20 h): 46 ± 16 µM |
| CC(C)NCC(O)COc1ccc(CCOCC2CC2)cc1 (centres unmarked) [betaxolol] |  |  |  |  |  |  |  |  |  | concentration in pigmented eye tissues compared to neighboring non-pigmented tissues [8]: 20–150 fold |
| CC1(C)S[C@@H]2[C@H](NC(=O)Cc3ccccc3)C(=O)N2[C@H]1C(=O)O [Penicillin G] |  |  |  |  |  |  |  |  |  | fraction unbound (melanin [1]): 0.092; fraction unbound (melanin [4]; [9]): 0.0029 |
